In PubChem BioAssay AID1963864 (Molecular Pharmacology Branch, DTP, NCI, 2024):

Test system: KRAS PDC multicell spheroid viability
Test: Anticancer human tumor 521955-158-R6-J3-PDC patient-derived pancreatic carcinoma cell line growth inhibition [KRAS2]
Details: for IC50: curve of first compound; for viability, T/C: stronger effect = lower value
Procedure, shortened: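 KRAS-mutant tumor cells were grown as spheroids with HUVEC endothelial cells and human MSCs as stroma. Targeted agents were tested alone and with KRAS pathway inhibitors. Doses started at or near clinical Cmax, or 10 microM, descending half-log.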

[1] = second compound 0.1 µM, first compound 0.0316 µM
[2] = second compound 0.1 µM, first compound 0.1 µM
[3] = second compound 0.1 µM, first compound 0.316 µM
[4] = second compound 0.1 µM, first compound 1 µM
[5] = second compound 0.1 µM, first compound 3.16 µM
[6] = second compound 0.1 µM, first compound 10 µM
[7] = second compound 0.316 µM, first compound 0.0316 µM
[8] = second compound 0.316 µM, first compound 0.1 µM
[9] = second compound 0.316 µM, first compound 0.316 µM
[10] = second compound 0.316 µM, first compound 1 µM
[11] = second compound 0.316 µM, first compound 3.16 µM
[12] = second compound 0.316 µM, first compound 10 µM
[13] = second compound 1 µM, first compound 0.0316 µM
[14] = second compound 1 µM, first compound 0.1 µM
[15] = second compound 1 µM, first compound 0.316 µM
[16] = second compound 1 µM, first compound 1 µM
[17] = second compound 1 µM, first compound 3.16 µM
[18] = second compound 1 µM, first compound 10 µM
[19] = second compound 3.16 µM, first compound 0.0316 µM
[20] = second compound 3.16 µM, first compound 0.1 µM
[21] = second compound 3.16 µM, first compound 0.316 µM
[22] = second compound 3.16 µM, first compound 1 µM
[23] = second compound 3.16 µM, first compound 3.16 µM
[24] = second compound 3.16 µM, first compound 10 µM
[25] = second compound 10 µM, first compound 0.0316 µM
[26] = second compound 10 µM, first compound 0.1 µM
[27] = second compound 10 µM, first compound 0.316 µM
[28] = second compound 10 µM, first compound 1 µM
[29] = second compound 10 µM, first compound 3.16 µM
[30] = second compound 10 µM, first compound 10 µM
[31] = second compound 0.1 µM, first compound 0.01 µM
[32] = second compound 0.316 µM, first compound 0.01 µM
[33] = second compound 1 µM, first compound 0.01 µM
[34] = second compound 3.16 µM, first compound 0.01 µM
[35] = second compound 10 µM, first compound 0.01 µM
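Also: drug exposure lasted seven days.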
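For viability, T/C in this document: 100% = DMSO vehicle wells and lower means fewer viable cells.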

Row | Structure (SMILES) | IC50 (second compound 0.1 µM) [µM] | IC50 (second compound 0.316 µM) [µM] | IC50 (second compound 1 µM) [µM] | IC50 (second compound 3.16 µM) [µM] | IC50 (second compound 10 µM) [µM] | viability, T/C [1] [%] | viability, T/C [2] [%] | viability, T/C [3] [%] | viability, T/C [4] [%] | viability, T/C [7] [%] | viability, T/C [8] [%] | viability, T/C [9] [%] | viability, T/C [10] [%] | viability, T/C [13] [%] | viability, T/C [14] [%] | viability, T/C [15] [%] | viability, T/C [16] [%] | viability, T/C [19] [%] | viability, T/C [20] [%] | viability, T/C [21] [%] | also measured
1 | CC(C)NCC(C(=O)N1CCN(c2ncnc3c2C(C)CC3O)CC1)c1ccc(Cl)cc1 (stereo not given) + CC1OCC2(CCN(c3cnc(Sc4ccnc(N)c4Cl)c(N)n3)CC2)C1N | > 10 | > 10 | > 10 | 1.35 | 0.643 | 86.9 | 77.1 | 68.8 | 68.7 | 84.3 | 71.4 | 61.1 | 63.5 | 78.1 | 74.6 | 60.7 | 54.7 | 86.9 | 78.7 | 59.7 | viability, T/C [5]: 61.7%; viability, T/C [6]: 56%; viability, T/C [11]: 60.2%; viability, T/C [12]: 48.9%; viability, T/C [17]: 50.9%; viability, T/C [18]: 51.7%; viability, T/C [22]: 53%; viability, T/C [23]: 47.5%; viability, T/C [24]: 43.3%; viability, T/C [25]: 102%; viability, T/C [26]: 73.8%; viability, T/C [27]: 56.7%; viability, T/C [28]: 43.9%; viability, T/C [29]: 44.2%; viability, T/C [30]: 34.1%
2 | CC1COCCN1c1cc(-c2ccnn2C)c2ccnc(-c3ccn[nH]3)c2n1 (stereo not given) + CC1OCC2(CCN(c3cnc(Sc4ccnc(N)c4Cl)c(N)n3)CC2)C1N | > 3.16 | > 3.16 | > 3.16 | > 3.16 | > 3.16 | 81.1 | 73.9 | 67.6 | 67.3 | 84.5 | 74.6 | 64.3 | 71.2 | 84.8 | 81.4 | 76.7 | 68.3 | 109 | 99.9 | 75.8 | viability, T/C [31]: 87.9%; viability, T/C [5]: 75.2%; viability, T/C [32]: 89.9%; viability, T/C [11]: 64.4%; viability, T/C [33]: 91.9%; viability, T/C [17]: 61%; viability, T/C [34]: 102%; viability, T/C [22]: 67.8%; viability, T/C [23]: 66.6%; viability, T/C [35]: 108%; viability, T/C [25]: 115%; viability, T/C [26]: 90.7%; viability, T/C [27]: 87.6%; viability, T/C [28]: 79.3%; viability, T/C [29]: 64.9%
3 | CCN1CCN(Cc2ccc(Nc3ncc(F)c(-c4cc(F)c5nc(C)n(C(C)C)c5c4)n3)nc2)CC1 + CC1OCC2(CCN(c3cnc(Sc4ccnc(N)c4Cl)c(N)n3)CC2)C1N | > 1 | > 1 | > 1 | > 1 | > 1 | 73 | 68.4 | 76 | 88.2 | 82.3 | 69.2 | 71.8 | 85.3 | 97 | 82.1 | 78.8 | 90.1 | 84.4 | 78.7 | 83.6 | viability, T/C (second compound 0.1 µM, first compound 0.00316 µM): 81.3%; viability, T/C [31]: 79.9%; viability, T/C (second compound 0.316 µM, first compound 0.00316 µM): 101%; viability, T/C [32]: 84.1%; viability, T/C (second compound 1 µM, first compound 0.00316 µM): 94.5%; viability, T/C [33]: 91.2%; viability, T/C (second compound 3.16 µM, first compound 0.00316 µM): 113%; viability, T/C [34]: 109%; viability, T/C [22]: 115%; viability, T/C (second compound 10 µM, first compound 0.00316 µM): 118%; viability, T/C [35]: 116%; viability, T/C [25]: 111%; viability, T/C [26]: 114%; viability, T/C [27]: 95.1%; viability, T/C [28]: 86.7%
4 | CCNC(=O)CC1N=C(c2ccc(Cl)cc2)c2cc(OC)ccc2-n2c(C)nnc21 (stereo not given) + CC1OCC2(CCN(c3cnc(Sc4ccnc(N)c4Cl)c(N)n3)CC2)C1N | > 10 | > 10 | > 10 | > 10 | 1.07 | 84.1 | 83.5 | 58.9 | 73.5 | 102 | 90.3 | 69.3 | 68.1 | 99.5 | 86.6 | 70.8 | 65.9 | 106 | 103 | 77 | viability, T/C [5]: 62.6%; viability, T/C [6]: 73.3%; viability, T/C [11]: 56.4%; viability, T/C [12]: 62.2%; viability, T/C [17]: 56.4%; viability, T/C [18]: 59.8%; viability, T/C [22]: 62.6%; viability, T/C [23]: 58%; viability, T/C [24]: 53.3%; viability, T/C [25]: 115%; viability, T/C [26]: 105%; viability, T/C [27]: 76.4%; viability, T/C [28]: 50%; viability, T/C [29]: 43.2%; viability, T/C [30]: 43%
5 | Cn1nccc1Nc1nccc(-c2cc3c(s2)C(C)(C)N(CCN2CCOCC2)C3=O)n1 + CC1OCC2(CCN(c3cnc(Sc4ccnc(N)c4Cl)c(N)n3)CC2)C1N | > 10 | > 10 | 7.94 | 2.83 | 1.51 | 89.8 | 93.9 | 94.2 | 81.2 | 93.9 | 95.5 | 90.3 | 67.4 | 88.4 | 98 | 82.2 | 72.2 | 82.1 | 88.4 | 72.7 | viability, T/C [5]: 68.4%; viability, T/C [6]: 62.6%; viability, T/C [11]: 63.7%; viability, T/C [12]: 57.1%; viability, T/C [17]: 53.7%; viability, T/C [18]: 49.2%; viability, T/C [22]: 59.9%; viability, T/C [23]: 47.8%; viability, T/C [24]: 47.7%; viability, T/C [25]: 93.2%; viability, T/C [26]: 86.6%; viability, T/C [27]: 71.9%; viability, T/C [28]: 53.6%; viability, T/C [29]: 43.4%; viability, T/C [30]: 39.5%
6 | CC(=O)OC12COC1CC(O)C1(C)C(=O)C(O)C3=C(C)C(OC(=O)C(O)C(NC(=O)OC(C)(C)C)c4ccccc4)CC(O)(C(OC(=O)c4ccccc4)C21)C3(C)C (stereo not given) + CNCc1ccccc1-c1csc(C(C)Nc2nc(C)nc3cc(OC)c(OC)cc23)c1 | > 3.16 | > 3.16 | > 3.16 | < 0.01 | < 0.01 | 67.6 | 72.9 | 82.2 | 85.6 | 64.7 | 69.9 | 60.6 | 92 | 70.6 | 73.8 | 83.6 | 94.8 | 72.7 | 0.72 | 1.02 | viability, T/C [31]: 68.7%; viability, T/C [5]: 96.1%; viability, T/C [32]: 70.4%; viability, T/C [11]: 93.7%; viability, T/C [33]: 75.3%; viability, T/C [17]: 98.1%; viability, T/C [34]: 0.42%; viability, T/C [22]: 3.04%; viability, T/C [23]: 130%; viability, T/C [35]: 1.35%; viability, T/C [25]: 0.32%; viability, T/C [26]: 0.53%; viability, T/C [27]: 0.88%; viability, T/C [28]: 0.31%; viability, T/C [29]: 0.89%
